The values that follow come from the Kinase Knowledgebase extract (Sharma et al. 2016).

One assay deals with MAPK14 (human) (UniProt Q16539). Kind of assay: Inhibition of LPS Induced TNF-alpha Release in Human PBMC.
In the next assay the target is MAPK14 (UniProt Q16539). Put plainly: Inhibition of MAPK14 Kinase Activity.
A further assay deals with MAPK14 (Balb/c mice). Put plainly: Animal Model. The settings on record: dose or concentration not given here.

Each structure is given as a SMILES string.

For orientation: IC50 means the concentration at which inhibition is half-maximal. For orientation: inhibition means the drop in the measured response relative to a control, in per cent.

Chain of MAPK14 (Q16539 whole entry, looked up): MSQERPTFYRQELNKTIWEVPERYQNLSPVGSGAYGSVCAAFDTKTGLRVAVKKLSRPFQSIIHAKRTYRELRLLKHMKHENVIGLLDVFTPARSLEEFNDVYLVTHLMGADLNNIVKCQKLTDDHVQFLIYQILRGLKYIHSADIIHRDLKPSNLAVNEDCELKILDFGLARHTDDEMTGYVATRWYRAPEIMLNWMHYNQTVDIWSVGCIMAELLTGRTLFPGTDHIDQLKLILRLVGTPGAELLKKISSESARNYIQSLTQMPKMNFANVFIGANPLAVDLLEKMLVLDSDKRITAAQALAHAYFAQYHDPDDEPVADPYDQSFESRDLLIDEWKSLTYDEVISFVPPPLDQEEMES
Chain of MAPK14 (human) (Q16539 whole entry, looked up): as above

In turn, `COc1ccc(C(=O)Nc2cc(NC(=O)c3cccc(N(C)C)c3)ccc2C)cc1` gave an IC50 on MAPK14 (human) of over 50 µM.
At MAPK14 (human), `COc1ccc(C(=O)Nc2cc(NC(=O)c3cccc(N(C)C)c3)ccc2C)c(OC)c1` came in with an IC50 of over 50 µM.
Same read-out and setting: the same measure for `Cc1ccc(NC(=O)c2cccc(N(C)C)c2)cc1NC(=O)c1ccc(O)cc1`: over 50 µM.
Molecule `Cc1ccc(NC(=O)c2cc(F)cc(N3CCOCC3)c2)cc1NC(=O)c1ccc(OCc2cscn2)cc1` had an IC50 at MAPK14 of 0.016 µM.
Take `Cc1ccc(NC(=O)c2cc(F)cc(N3CCOCC3)c2)cc1NC(=O)c1ccc(OCc2ccccn2)cc1`: the IC50 against MAPK14 is 0.064 µM.
Molecule `Cc1ccc(NC(=O)c2cccc(N3CCOCC3)c2)cc1NC(=O)c1ccc(OCc2ccncc2)cc1` had an IC50 against MAPK14 of 0.022 µM.
The same measure, in the same setting: the same measure for `Cc1nc(COc2ccc(C(=O)Nc3cc(NC(=O)c4cccc(N5CCOCC5)c4)ccc3C)cc2)cs1`: 0.028 µM; for `Cc1ccc(NC(=O)c2cccc(N3CCOCC3)c2)cc1NC(=O)c1ccc(OCc2ccccc2)cc1`: 0.037 µM.
Molecule `Cc1nc(COc2ccc(C(=O)Nc3cc(NC(=O)c4cc(F)cc(N5CCOCC5)c4)ccc3C)cc2)cs1` registered an inhibition in the assay on MAPK14 (Balb/c mice) of 0%. The IC50 against MAPK14 stood at 0.097 µM.
At MAPK14, `Cc1ccc(NC(=O)c2cccc(N3CCOCC3)c2)cc1NC(=O)c1ccc(OCc2cccnc2)cc1` registered an IC50 of 0.095 µM.
For the molecule `Cc1ccc(NC(=O)c2cc(F)cc(N3CCOCC3)c2)cc1NC(=O)c1ccc(OCc2ccncc2)cc1`, the IC50 against MAPK14 turned out to be 0.017 µM.
